Target: T1, human mAChR M1 (Homo sapiens, UniProt P11229)
T1 sequence (P11229 1-460): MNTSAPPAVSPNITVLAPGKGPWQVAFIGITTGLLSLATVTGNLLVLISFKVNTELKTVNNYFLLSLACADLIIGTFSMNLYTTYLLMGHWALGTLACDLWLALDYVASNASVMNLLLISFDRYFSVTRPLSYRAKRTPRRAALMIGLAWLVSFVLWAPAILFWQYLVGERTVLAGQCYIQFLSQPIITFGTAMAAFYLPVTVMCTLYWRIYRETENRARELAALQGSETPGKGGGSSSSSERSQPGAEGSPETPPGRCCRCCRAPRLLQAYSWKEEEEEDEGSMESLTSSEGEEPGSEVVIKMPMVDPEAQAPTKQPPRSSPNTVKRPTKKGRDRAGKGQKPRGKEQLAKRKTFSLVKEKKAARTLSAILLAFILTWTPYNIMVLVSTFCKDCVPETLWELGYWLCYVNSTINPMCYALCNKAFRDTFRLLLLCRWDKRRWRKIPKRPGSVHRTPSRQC
Assay: mAChR M1 cell-based functional assay: calcium mobilization, positive allosteric modulator mode (increase in EC20 acetylcholine response)
Conditions: Table 2, human M1; for EC50: read-out: Human M1 EC50; for Emax: read-out: Human M1 Emax (%)
Method in brief: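 Calcium-flux assay in CHO-K1 cells stably expressing human M1, loaded with Fluo-4 AM (50 min, 37 °C) and read at 1 Hz. Compound (11-point, 1:3 series) was added at 4 s, EC20 acetylcholine at 144 s and EC80 at 230 s. PAM activity is the concentration-dependent rise in the EC20 response, fitted with a four-parameter logistic.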

Row | EC50 | Emax | SMILES
1 | > 10000 nM | 46.8% | O=C(N[C@@H]1CC[C@H]1O)c1cc(Cc2c(F)cc(-c3cscn3)cc2F)c2sccc2n1 [Compound 274, 7-[(2,6-difluoro-4-thiazol-4-yl-phenyl)methyl]-N-[(1R,2R)-2-hydroxycyclobutyl]thieno[3,2-b]pyridine-5-carboxamide]
2 | 43 nM | 69.9% | O=C(NC1CC2(COC2)C1)c1cc(Cc2ccc(-n3cccn3)cc2)c2sccc2n1 [Compound 275, N-(2-oxaspiro[3.3]heptan-6-yl)-7-[(4-pyrazol-1-ylphenyl)methyl]thieno[3,2-b]pyridine-5-carboxamide]
3 | 5500 nM | 64.5% | CC1(NC(=O)c2cc(Cc3ccc(-n4cccn4)cc3)c3sccc3n2)COC1 [Compound 276, N-(3-methyloxetan-3-yl)-7-[(4-pyrazol-1-ylphenyl)methyl]thieno[3,2-b]pyridine-5-carboxamide]
4 | 627 nM | 67.9% | O=C(N[C@@H]1CCOC1)c1cc(Cc2ccc(-n3cccn3)cc2)c2sccc2n1 [Compound 277, 7-[(4-pyrazol-1-ylphenyl)methyl]-N-[(3R)-tetrahydrofuran-3-yl]thieno[3,2-b]pyridine-5-carboxamide]
5 | 485 nM | 73.4% | O=C(N[C@H]1CCOC1)c1cc(Cc2ccc(-n3cccn3)cc2)c2sccc2n1 [Compound 278, 7-[(4-pyrazol-1-ylphenyl)methyl]-N-[(3S)-tetrahydrofuran-3-yl]thieno[3,2-b]pyridine-5-carboxamide]
6 | 1050 nM | 68.7% | O=C(NC1COC1)c1cc(Cc2ccc(-n3cccn3)cc2)c2sccc2n1 [Compound 279, N-(oxetan-3-yl)-7-[(4-pyrazol-1-ylphenyl)methyl]thieno[3,2-b]pyridine-5-carboxamide]
7 | 297 nM | 71.8% | O=C(NC1CC(F)C1)c1cc(Cc2ccc(-n3cccn3)cc2)c2sccc2n1 (stereo not shown) [Compound 280, N-(3-fluorocyclobutyl)-7-[(4-pyrazol-1-ylphenyl)methyl]thieno[3,2-b]pyridine-5-carboxamide]
8 | 256 nM | 55% | O=C(NC1CC(F)(F)C1)c1cc(Cc2ccc(-n3cccn3)cc2)c2sccc2n1 [Compound 281, N-(3,3-difluorocyclobutyl)-7-[(4-pyrazol-1-ylphenyl)methyl]thieno[3,2-b]pyridine-5-carboxamide]
9 | 601 nM | 40% | N#CC1(NC(=O)c2cc(Cc3ccc(-n4cccn4)cc3)c3sccc3n2)CC1 [Compound 282, N-(1-cyanocyclopropyl)-7-[(4-pyrazol-1-ylphenyl)methyl]thieno[3,2-b]pyridine-5-carboxamide]
10 | > 10000 nM | 43.1% | CC(C)(C#N)NC(=O)c1cc(Cc2ccc(-n3cccn3)cc2)c2sccc2n1 [Compound 283, N-(1-cyano-1-methyl-ethyl)-7-[(4-pyrazol-1-ylphenyl)methyl]thieno[3,2-b]pyridine-5-carboxamide]
11 | 67.7 nM | 66.9% | O=C(NCC1CCO1)c1cc(Cc2ccc(-n3cccn3)cc2)c2sccc2n1 (stereo not shown) [Compound 284, N-(oxetan-2-ylmethyl)-7-[(4-pyrazol-1-ylphenyl)methyl]thieno[3,2-b]pyridine-5-carboxamide]
12 | 95.3 nM | 64.3% | O=C(NCC1CCOC1)c1cc(Cc2ccc(-n3cccn3)cc2)c2sccc2n1 (stereo not shown) [Compound 285, 7-[(4-pyrazol-1-ylphenyl)methyl]-N-(tetrahydrofuran-3-ylmethyl)thieno[3,2-b]pyridine-5-carboxamide]
13 | 203 nM | 69.3% | O=C(NC[C@@H]1CCCO1)c1cc(Cc2ccc(-n3cccn3)cc2)c2sccc2n1 [Compound 286, 7-[(4-pyrazol-1-ylphenyl)methyl]-N-[[(2S)-tetrahydrofuran-2-yl]methyl]thieno[3,2-b]pyridine-5-carboxamide]
14 | 49.4 nM | 64.9% | O=C(NC[C@H]1CCCO1)c1cc(Cc2ccc(-n3cccn3)cc2)c2sccc2n1 [Compound 287, 7-[(4-pyrazol-1-ylphenyl)methyl]-N-[[(2R)-tetrahydrofuran-2-yl]methyl]thieno[3,2-b]pyridine-5-carboxamide]
15 | 97.4 nM | 74.4% | O=C(NCC1CCOCC1)c1cc(Cc2ccc(-n3cccn3)cc2)c2sccc2n1 [Compound 288, 7-[(4-pyrazol-1-ylphenyl)methyl]-N-(tetrahydropyran-4-ylmethyl)thieno[3,2-b]pyridine-5-carboxamide]
16 | 1160 nM | 80.7% | O=C(NCC1CCCCO1)c1cc(Cc2ccc(-n3cccn3)cc2)c2sccc2n1 (stereo not shown) [Compound 289, 7-[(4-pyrazol-1-ylphenyl)methyl]-N-(tetrahydropyran-2-ylmethyl)thieno[3,2-b]pyridine-5-carboxamide]

Row | EC50 | Emax | SMILES
17 | 5340 nM | 65.3% | O=C(N[C@H]1CCCNC1)c1cc(Cc2ccc(-n3cccn3)cc2)c2sccc2n1 [Compound 290, N-[(3S)-3-piperidyl]-7-[(4-pyrazol-1-ylphenyl)methyl]thieno[3,2-b]pyridine-5-carboxamide]
18 | 1120 nM | 64.3% | CC1(NC(=O)c2cc(Cc3ccc(-n4cccn4)cc3)c3sccc3n2)CCCNC1 (stereo not shown) [Compound 291, N-(3-methyl-3-piperidyl)-7-[(4-pyrazol-1-ylphenyl)methyl]thieno[3,2-b]pyridine-5-carboxamide]
19 | 225 nM | 81.8% | O=C(NCC1CCN1)c1cc(Cc2ccc(-n3cccn3)cc2)c2sccc2n1 (stereo not shown) [Compound 292, N-(azetidin-2-ylmethyl)-7-[(4-pyrazol-1-ylphenyl)methyl]thieno[3,2-b]pyridine-5-carboxamide]
20 | 6 nM | 61.6% | O=C(N[C@H]1CCOC[C@@H]1O)c1cc(Cc2ccc(-n3cccn3)cc2)c2sccc2n1 [Compound 293, N-[(3R,4S)-3-hydroxytetrahydropyran-4-yl]-7-[(4-pyrazol-1-ylphenyl)methyl]thieno[3,2-b]pyridine-5-carboxamide]
21 | 15.7 nM | 71.1% | O=C(N[C@H]1CCOC[C@@H]1O)c1cc(Cc2ccc(-c3nccs3)cc2)c2sccc2n1 [Compound 294]
22 | 273 nM | 79.9% | O=C(NC1CCOCC1)c1cc(Cc2ccc(-c3nccs3)cc2)c2sccc2n1 [Compound 296]
23 | 225 nM | 76.4% | O=C(N[C@H]1CC[C@@H]1O)c1cc(Cc2ccc(-c3nccs3)cc2)c2sccc2n1 [Compound 297, N-[(1S,2S)-2-hydroxycyclobutyl]-7-[(4-thiazol-2-ylphenyl)methyl]thieno[3,2-b]pyridine-5-carboxamide]
24 | 368 nM | 45.5% | O=C(NCC1CCOCC1)c1cc(Cc2ccc(-c3nccs3)cc2)c2sccc2n1 [Compound 298, N-(tetrahydropyran-4-ylmethyl)-7-[(4-thiazol-2-ylphenyl)methyl]thieno[3,2-b]pyridine-5-carboxamide]
25 | 702 nM | 75% | Cc1nc(-c2ccc(Cc3cc(C(=O)NC4CC(C)OC(C)C4)nc4ccsc34)cc2)co1 (stereo not shown) [Compound 299, N-(2,6-dimethyltetrahydropyran-4-yl)-7-[[4-(2-methyloxazol-4-yl)phenyl]methyl]thieno[3,2-b]pyridine-5-carboxamide]
26 | 225 nM | 75.3% | Cc1nc(-c2ccc(Cc3cc(C(=O)NC4CCOC(C)(C)C4)nc4ccsc34)cc2)co1 (stereo not shown) [Compound 300, N-(2,2-dimethyltetrahydropyran-4-yl)-7-[[4-(2-methyloxazol-4-yl)phenyl]methyl]thieno[3,2-b]pyridine-5-carboxamide]
27 | 405 nM | 69.9% | Cc1csc2c(Cc3ccc(-c4ccn(C)n4)cc3)cc(C(=O)NC3CCOCC3)nc12 [Compound 302, 3-methyl-7-[[4-(1-methylpyrazol-3-yl)phenyl]methyl]-N-tetrahydropyran-4-yl-thieno[3,2-b]pyridine-5-carboxamide]
28 | 366 nM | 70.7% | Cc1csc2c(Cc3ccc(-c4ccn(C)n4)cc3)cc(C(=O)N[C@H]3CCC[C@@H]3O)nc12 [Compound 303, N-[(1S,2S)-2-hydroxycyclopentyl]-3-methyl-7-[[4-(1-methylpyrazol-3-yl)phenyl]methyl]thieno[3,2-b]pyridine-5-carboxamide]
29 | 568 nM | 72.3% | Cc1csc2c(Cc3ccc(-c4ccn(C)n4)cc3)cc(C(=O)NC3CC4(COC4)C3)nc12 [Compound 304, 3-methyl-7-[[4-(1-methylpyrazol-3-yl)phenyl]methyl]-N-(2-oxaspiro[3.3]heptan-6-yl)thieno[3,2-b]pyridine-5-carboxamide]
30 | 2850 nM | 76.3% | Cc1csc2c(Cc3ccc(-c4ccn(C)n4)cc3)cc(C(=O)N[C@@H]3CCOC3)nc12 [Compound 305, 3-methyl-7-[[4-(1-methylpyrazol-3-yl)phenyl]methyl]-N-[(3R)-tetrahydrofuran-3-yl]thieno[3,2-b]pyridine-5-carboxamide]
31 | 2920 nM | 79.3% | Cc1csc2c(Cc3ccc(-c4ccn(C)n4)cc3)cc(C(=O)N[C@H]3CCOC3)nc12 [Compound 306]
32 | 3440 nM | 67.2% | Cc1csc2c(Cc3ccc(-c4ccn(C)n4)cc3)cc(C(=O)NC3COC3)nc12 [Compound 307, 3-methyl-7-[[4-(1-methylpyrazol-3-yl)phenyl]methyl]-N-(oxetan-3-yl)thieno[3,2-b]pyridine-5-carboxamide]
